In paper PMC3079629, “Cloning and characterization of a 9-lipoxygenase gene induced by pathogen attack from Nicotiana benthamiana for biotechnological application” (BMC Biotechnology, 2011):

Target: T1, Nb-9-LOX (Nicotiana benthamiana, UniProt R4S2V6)
T1 construct: protein starts MSLEKI, ends NSVSI (from primers)
T1 sequence (R4S2V6 1-862): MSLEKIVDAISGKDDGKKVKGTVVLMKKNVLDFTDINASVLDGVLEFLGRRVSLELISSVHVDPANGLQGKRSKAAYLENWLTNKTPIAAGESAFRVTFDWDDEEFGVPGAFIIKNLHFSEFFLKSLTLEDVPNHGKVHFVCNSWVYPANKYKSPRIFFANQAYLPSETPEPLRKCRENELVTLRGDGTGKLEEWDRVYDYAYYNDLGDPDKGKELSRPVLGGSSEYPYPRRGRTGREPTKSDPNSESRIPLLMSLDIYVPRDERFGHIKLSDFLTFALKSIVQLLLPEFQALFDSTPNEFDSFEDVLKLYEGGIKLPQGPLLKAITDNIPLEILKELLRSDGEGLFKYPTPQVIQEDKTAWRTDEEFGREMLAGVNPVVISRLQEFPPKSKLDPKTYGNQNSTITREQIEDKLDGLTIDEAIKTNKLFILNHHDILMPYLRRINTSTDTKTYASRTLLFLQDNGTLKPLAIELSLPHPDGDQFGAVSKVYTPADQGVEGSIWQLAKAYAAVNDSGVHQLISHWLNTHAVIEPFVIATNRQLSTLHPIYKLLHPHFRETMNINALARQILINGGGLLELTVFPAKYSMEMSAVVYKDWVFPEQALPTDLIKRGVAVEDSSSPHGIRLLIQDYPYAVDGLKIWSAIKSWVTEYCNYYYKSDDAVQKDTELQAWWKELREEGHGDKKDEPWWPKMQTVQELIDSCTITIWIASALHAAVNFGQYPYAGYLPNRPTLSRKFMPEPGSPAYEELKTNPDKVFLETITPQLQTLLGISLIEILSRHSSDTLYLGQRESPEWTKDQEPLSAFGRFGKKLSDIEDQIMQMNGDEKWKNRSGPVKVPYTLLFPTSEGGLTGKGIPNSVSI
Assay: spectrophotometry at […] nm, conjugated diene formation, crude yeast extract
Format: biochemical
Details: 50 mM sodium phosphate; pH 6.0 presumed for the Km (used after the optimum was found); room temperature; O2

SMILES: CCCCC/C=C\C/C=C\CCCCCCCC(=O)O [linoleic acid]
- Km: 3.9 µM
